Measurements reported in patent US12276670B2, “Methods for identifying and treating adrenomyeloneuropathy (AMN)” (The General Hospital Corporation, priority 2017, dated 2025).
Entries after “also recorded” stand apart in the source; their conditions may differ.

Legend:
[1] = test system: neurons differentiated from ReN cells; assay: Cleaved-caspase and Tuj 1 staining after VLCFA treatment; assay type: cell-based, human; details: for cleaved-caspase staining (late apoptosis): differentiated ReN neurons after FFA C26:0 or LPC C26:0 treatment
[2] = test system: neurons differentiated from ReN cells; assay: PS exposure by Annexin V-FITC binding; assay type: cell-based, human; details: treatment for 3 days at 10 μM or 20 μM
Procedure: The most significant biochemical change caused by ABCD1 mutations is increased VLCFA levels including free fatty acid and LPC (in particular C24:0 and C26:0) in plasma and tissues. In order to determine whether neurons exposed to high VLCFA levels have PS exposure on their surfaces, neurons differentiated from ReN cells were treated with both C26:0 free fatty acid (FFA C26:0) and LPC C26:0 and then determined the PS exposure by Annexin V-FITC binding. Immortalized hNPC cell line ReNcell VM (ReN) was used to differentiate into neurons according to a published protocol (Kim et al., 2015). Simply, ReN cells were grown in proliferation medium (DMEM/F12 (Gibco/Life Technologies) with 2 μg/ml heparin (stock, STEMCELL Technologies), 2% B27 (Life Technologies), 20 ng/ml EGF, 20 ng/ml bFGF and 1% of 100× penicillin/streptomycin (Gibco/Life Technologies) until confluency. For differentiation, 3×10^4 cells were seeded on matrigel-coated (1:100 dilution in DMEM/F12) 8 well chamber slides and grown in differentiation medium (DMEM/F12 (Gibco/Life Technologies) with 2 μg/ml heparin (stock, STEMCELL Technologies), 2% B27 (Life Technologies) and 1% of 100× penicillin/streptomycin (Gibco/Life Technologies) for 2-3 weeks prior to co-culture with microglia.

MFGE8 [3] = assay: MFGE8 gene expression in N9 microglia; assay type: cell-based; details: 30 uM, 3 days
Procedure: (§1) In order to learn whether microglial changes seen in vivo were primary or secondary to axon degeneration, microglia was isolated from postnatal mice and molecular changes in unstimulated conditions was assessed as well as after LPS challenge. Microglia cultures were prepared as previously described (Tamashiro et al., 2012). Briefly, mixed glial cultures (˜95% astrocytes, ˜5% microglia) were prepared from the brain tissue of 1-3 day old mice. The tissue was trypsinized with 0.05% trypsin, and the cells were resuspended in glia complete medium DMEM (Lonza) supplemented with 10% fetal bovine serum (FBS), 100 IU/ml penicillin, 100 μg/ml streptomycin and 2 mM L-Glutamine. After 10-14 days in culture, microglia were isolated from the mixed glial cultures by the shake-off procedure. Specifically, loosely attached microglia were obtained from an incubator shaker at 250 rpm for 2 h at 37° C., the cell-containing medium was centrifuged at 1100 rpm for 3 minutes to collect microglia for subsequent culture. N9 microglia cells were cultured in RPMI 1640 medium supplemented with 10% FBS.
After observing an unexpected increase of phagocytosis-related biomarkers at the tissue level, whether gene expression of these markers would be altered in vitro was examined. Total RNA from cells or tissues were isolated using Qiagen RNeasy Mini Kit (Qiagen). First-strand cDNA synthesis used 100 ng random primer (Life Technologies), […], 10 mM dNTP, and 200 units of reverse transcriptase (Life Technologies) per 20 μL reactions. PCRs were performed in duplicates in a 25 μl final volume by using SYBR Green master mix from Applied Biosystems (Life Technologies). The data was analyzed by calculating the delta Ct value between the tested gene and an internal control.
In order to examine whether VLCFA has any effect on MFGE8 expression, microglial cell lines (N9) were treated with 30 uM FFA C26:0, LPC C16:0 and LPC C26:0 separately for 3 days.

MFGE8 [4] = assay: MFGE8 protein secretion in primary isolated microglia (ELISA); assay type: cell-based, mouse; details: primary microglia from WT and Abcd1−/− mice, 15 uM
Procedure: as §1
An ELISA assay detected 2-fold higher MFGE8 protein secretion into media by Abcd1−/− microglia (FIG. 4D, P<0.05; MFGE8 and TNFa level in culture medium and spinal cord homogenate were measured using MFGE8 and TNFa ELISA kit (R&D) according to manufacturer's instructions). […]

MFGE8 [5] = assay: MFGE8 gene expression in primary isolated microglia; assay type: cell-based, mouse; details: primary microglia from WT and Abcd1−/− mice, 15 uM
Procedure: as §1
After observing an unexpected increase of phagocytosis-related biomarkers at the tissue level, whether gene expression of these markers would be altered in vitro was examined. […] The data was analyzed by calculating the delta Ct value between the tested gene and an internal control. […]

[6] = test system: differentiated ReN cells in the co-culture system with primary Abcd1−/− microglia; assay: Co-culture of differentiated neurons with primary Abcd1−/− microglia; assay type: cell-based
Procedure: As a bridging protein, MFGE8 tightly binds to exposed phosphatidylserine on surface membranes of stressed neurons and opsonizes them for phagocytosis. Indeed, in co-culture, Abcd1−/− microglia increased phagocytosis of phosphatidylserine-exposing neurons in both unstimulated and LPS-challenged conditions (FIG. 4E). For the co-culture of microglia and neurons, isolated microglia were seeded on top of differentiated neurons and co-cultured for 4 days with or without supplementation of VLCFA. For VLCFA supplementation, hexacosanoic acid (FFA C26:0) and Lysophosphatidylcholine (LPC) C16:0 and C26:0 (Avanti polar lipid) were solubilized in 50 mg/ml Methyl-β-cyclodextrin to make 3 mM stock solution and then supplemented into culture medium to reach designated concentration with Methyl-β-cyclodextrin as vehicle control. […] Tuj-1 immunofluoresece and degenerated axons were quantified in each group.
The most significant biochemical change caused by ABCD1 mutations is increased VLCFA levels including free fatty acid and LPC (in particular C24:0 and C26:0) in plasma and tissues. In order to determine whether neurons exposed to high VLCFA levels have PS exposure on their surfaces, neurons differentiated from ReN cells were treated with both C26:0 free fatty acid (FFA C26:0) and LPC C26:0 and then determined the PS exposure by Annexin V-FITC binding. […]

[7] = test system: primary microglia from Abcd1−/− mice; assay: Microglial phagocytosis assay (PS exposing SH-SY5Y neurons seeded on microglia); assay type: cell-based, mouse; details: primary Abcd1−/− microglia pretreated 12 hours; MFGE8 at 50 ng/ml; 4 hours co-culture
Procedure: To validate the impact of MFGE8, primary microglia from Abcd1−/− mice were pretreated with either MFGE8 (50 ng/ml) or MFGE8 antibody for 12 hours and then phagocytosis was assessed by performing a microglial phagocytosis assay. Microglia were seeded in 8-well chamber (7×10^4/well in complete medium) and cultured for 24 hours. SH-SY5Y cells were treated with 100 uM H2O2 for 12 hours to induce phosphatidylserine (PS) exposure on cell surface. Floating SH-Sy5Y cells were then collected by centrifuge at 1000 g for 3 minutes, resuspended in serum free medium and stained with 3 μM CMTPX (red)(Life Science Technologies)(1:1000 dilution) for 30 minutes. A portion of the floating cells was subjected to Annexin V-FITC staining to confirm the exposure of phosphatidylserine. The remnant was washed twice and seeded (same amount as microglia) on top of the microglial layer. After 4 hours co-culture, cells were washed with PBS and fixed with 4% paraformaldehyde (PFA) for 15 min at room temperature. Microglia were then stained with IBA1 antibody (Wako) overnight followed by Alexa Fluor-488 conjugated second antibody. For quantification, 5 random images were taken from each chamber well using a confocal microscope (Zeiss). The total number of phagocytosed particles as well as cell-sized particles was counted and divided by microglia cell number.

Molecule | cleaved-caspase staining (late apoptosis) [1] | PS exposure on cell surface (Annexin V-FITC) [2] | MFGE8 mRNA expression (MFGE8 [3]) | MFGE8 expression at protein level (secretion) (MFGE8 [4]) | neuronal marker Tuj 1 morphology ([1]; differentiated ReN neurons after LPC C26:0 treatment) | MFGE8 expression at mRNA level (MFGE8 [5]) | decrease of Tuj 1 expression ([6]; 15 uM LPC C26:0, co-culture 4 days) [%] | axon degeneration (quantification of degenerated axons) ([6]; co-culture system with LPC C26:0 supplementation, with or without MFGE8 antibody) | microglial phagocytosis of PS exposing neurons [7]
CCCCCCCCCCCCCCCCCCCCCCCCCC(=O)O [FFA C26:0, hexacosanoic acid] | did not reveal a notable positive signal | did not induce significant PS exposure | did not have an effect |  |  |  |  |  | 
CCCCCCCCCCCCCCCCCCCCCCCCCC(=O)OC[C@@H](O)COP(=O)([O-])OCC[N+](C)(C)C [LPC C26:0, Lysophosphatidylcholine (LPC) C26:0] | did not reveal a notable positive signal; also recorded: little late apoptosis | remarkable dose dependent PS exposure; also recorded: showed exposure of phosphatidylserine (PS) | significantly increased | significant increases | did not show significant morphological changes | significant increases | 20 | increased axon degeneration | 
CCCCCCCCCCCCCCCC(=O)OC[C@@H](O)COP(=O)([O-])OCC[N+](C)(C)C [LPC C16:0, Lysophosphatidylcholine (LPC) C16:0] |  |  | did not have an effect |  |  |  |  |  | 
MFGE8: milk fat globule EGF factor 8 protein, supplemented to microglia at 50 ng/ml (protein, UniProt Q08431 24-387, looked up) Lactadherin: LDICSKNPCHNGGLCEEISQEVRGDVFPSYTCTCLKGYAGNHCETKCVEPLGLENGNIANSQIAASSVRVTFLGLQHWVPELARLNRAGMVNAWTPSSNDDNPWIQVNLLRRMWVTGVVTQGASRLASHEYLKAFKVAYSLNGHEFDFIHDVNKKHKEFVGNWNKNAVHVNLFETPVEAQYVRLYPTSCHTACTLRFELLGCELNGCANPLGLKNNSIPDKQITASSSYKTWGLHLFSWNPSYARLDKQGNFNAWVAGSYGNDQWLQVDLGSSKEVTGIITQGARNFGSVQFVASYKVAYSNDSANWTEYQDPRTGSSKIFPGNWDNHSHKKNLFETPILARYVRILPVAWHNRIALRLELLGC |  |  |  |  |  |  |  |  | significant increase; also recorded: dramatically increased
